Experimental findings from patent US11459308B2 (priority 2016, dated 2022) are described below.

One series can be described thus: in vitro. Conditions: African green monkey.
The test system of another series is rVSV-EBOV GP. Briefly: microbe, parasite or virus in culture. It is filed as cell-based, Zaire Ebolavirus. The settings on record: Zaire ebolavirus, read-out: rVSV-EBOV IC50.
Series [1] relates to authentic EBOV (EBOV-Zaire 1995). Kind of series: microbe, parasite or virus in culture. The settings on record: Zaire ebolavirus, Vero, 48 h, read-out: infectious EBOV-Z IC50. It is filed as cell-based, Ebola virus.

One may read the IC50 as the concentration at which inhibition is half-maximal. In turn, `CN1CCN(c2ccc([N+](=O)[O-])c(NC(c3ccccc3)c3ccncc3)c2)CC1` (stereo not drawn) [MBX 3670, 2-[(pyridin-4-yl)(phenyl)methylamino]-4-(4-methylpiperazin-1-yl)nitrobenzene] registered a CC50 in the series “in vitro” of 45 µM. Moreover, the IC50 in the series on rVSV-EBOV GP was 4.5 µM.

`Cc1cccc(C(Nc2cc(N3CCN(C)CC3)ccc2[N+](=O)[O-])c2ccccc2)c1` (stereo not drawn) [MBX 3634, 2-[phenyl(m-tolyl)methylamino]-4-(4-methylpiperazin-1-yl)nitrobenzene] yielded a CC50 in “in vitro” of more than 100 µM. Besides, the IC50 was 3.4 µM in the series on rVSV-EBOV GP and 3 µM in series [1].

With `CN1CCN(c2cc(C#N)c([N+](=O)[O-])c(NC(c3ccccc3)c3ccccc3)c2)CC1` [MBX 3743, 2-(benzhydrylamino)-4-(4-methylpiperazin-1-yl)-6-cyano-1-nitrobenzene], the CC50 in “in vitro” is more than 100 µM. Moreover, the IC50 (in the series on rVSV-EBOV GP; in series [1]) was 2 µM throughout.

`O=[N+]([O-])c1ccc(N2CCN(Cc3ccccn3)CC2)cc1NC(c1ccccc1)c1ccccc1` [MBX 3558, 1-(benzhydrylamino)-5-[4-(pyridin-2-ylmethyl)piperazin-1-yl]-2-nitrobenzene]: the CC50 in the series “in vitro” was more than 200 µM. For the same compound, the figures for the IC50 (in the series on rVSV-EBOV GP; in series [1]) were 4 µM and 2.8 µM, respectively.

With `CN1CCN(c2ccc3[nH]c(=O)n(C(c4ccccc4)c4ccccc4)c3c2)CC1` [MBX 3526, 1-benzhydryl-6-(4-methylpiperazin-1-yl)-1H-benzo[d]imidazol-2(3H)-one], the CC50 in “in vitro” amounted to 26 µM. Also, in the series on rVSV-EBOV GP, the IC50 stood at 2.9 µM.

`c1ccc(C(c2ccccc2)n2cnc3ccc(-c4ccncc4)cc32)cc1` [MBX 4278, 1-benzhydryl-6-(pyridin-4-yl)-1H-benzo[d]imidazole]: the CC50 in the series “in vitro” was 4.2 µM. In addition, in the series on rVSV-EBOV GP, the IC50 was 8.98 µM.

For `O=[N+]([O-])c1ccc(N2CCN(c3ccccc3)CC2)cc1NC(c1ccccc1)c1ccccc1` [MBX 3624, 2-benzhydrylamino-4-(4-phenylpiperazin-1-yl)nitrobenzene], in “in vitro”, the CC50 is more than 100 µM. The IC50 in the series with rVSV-EBOV GP was more than 25 µM.

In “in vitro”, `O=[N+]([O-])c1ccc(N2CCN(CCc3ccccc3)CC2)cc1NC(c1ccccc1)c1ccccc1` [MBX 3623, 2-benzhydrylamino-4-(4-phenethylpiperazin-1-yl)nitrobenzene] gave a CC50 of more than 100 µM. In addition, the IC50 with rVSV-EBOV GP was more than 25 µM.

`COc1ccccc1C(Nc1cc(N2CCN(C)CC2)ccc1[N+](=O)[O-])c1ccccc1` (stereo not drawn) [MBX 3635, 2-[phenyl(2-methoxyphenyl)methylamino]-4-(4-methylpiperazin-1-yl)nitrobenzene] registered a CC50 in the series “in vitro” of 14 µM. Moreover, the IC50 with rVSV-EBOV GP worked out at 2.5 µM.

In turn, `COc1ccc(C(Nc2cc(N3CCN(C)CC3)ccc2[N+](=O)[O-])c2ccccc2)cc1` (stereo not drawn) [MBX 3642, 2-[(4-methoxyphenyl)(phenyl)methylamino]-4-(4-methylpiperazin-1-yl)nitrobenzene] came in with a CC50 in the series “in vitro” of 33 µM. Also, the IC50 with rVSV-EBOV GP was more than 25 µM.

With `O=[N+]([O-])c1ccc(-c2ccncc2)cc1NC(c1ccccc1)c1ccccc1` [MBX 4277, N-benzhydryl-2-nitro-5-(pyridin-4-yl)aniline], the CC50 in the series “in vitro” is 40 µM. The IC50 in the series with rVSV-EBOV GP is 14.6 µM.

Consider `O=[N+]([O-])c1ccc(N2CCOCC2)cc1NC(c1ccccc1)c1ccccc1` [PPZ-10], for which, in “in vitro”, the CC50 is more than 100 µM. Moreover, the IC50 with rVSV-EBOV GP was determined as 5.5 µM.

In turn, `CN1CCN(c2ccc([N+](=O)[O-])c(NC(c3ccccc3)c3ccccn3)c2)CC1` (stereo not drawn) [MBX 3647, 2-[(pyridin-2-yl)(phenyl)methylamino]-4-(4-methylpiperazin-1-yl)nitrobenzene] displayed a CC50 in “in vitro” of more than 100 µM. Besides, the IC50 in the series with rVSV-EBOV GP was more than 25 µM.

Compound `c1ccc(C(c2ccccc2)n2cnc3ccc(-c4cccnc4)cc32)cc1` [MBX 4294, 1-benzhydryl-6-(pyridin-3-yl)-1H-benzo[d]imidazole] displayed a CC50 in “in vitro” of 59 µM. Also, in the series with rVSV-EBOV GP, the IC50 came out at 15.6 µM.

On to `O=[N+]([O-])c1ccc(N2CCCCC2)cc1NC(c1ccccc1)c1ccccc1` [MBX 3702, 2-benzhydrylamino-4-(piperidin-1-yl)-1-nitrobenzene], for which the CC50 in “in vitro” is more than 100 µM. Further, in the series with rVSV-EBOV GP, the IC50 was more than 25 µM.

For the compound `c1ccc(C(c2ccccc2)n2cnc3ccc(N4CCNCC4)nc32)cc1` [MBX 4214, 3-benzhydryl-5-(piperazin-1-yl)-3H-imidazo[4,5-b]pyridine], the CC50 in the series “in vitro” amounted to 105 µM. Besides, the IC50 in the series with rVSV-EBOV GP came out at 3 µM.

In turn, `CN1CCN(c2ccc([N+](=O)[O-])c(NC(c3ccccc3)c3ccccc3)c2)CC1=O` [MBX 3695, 2-benzhydrylamino-4-(4-methyl-3-oxopiperazin-1-yl)nitrobenzene] returned a CC50 in the series “in vitro” of more than 100 µM. For the same compound, the IC50 with rVSV-EBOV GP was 16 µM.

In turn, `c1ccc(C(c2ccccc2)n2cnc3cnc(N4CCNCC4)cc32)cc1` [MBX 4215A, 1-benzhydryl-6-(piperazin-1-yl)-1H-imidazo[4,5-c]pyridine bis(2,2,2-trifluoroacetate)] registered a CC50 in the series “in vitro” of 94 µM. In the series on rVSV-EBOV GP, the IC50 stood at 2.8 µM.

Consider `CN(C)C1CCN(c2ccc([N+](=O)[O-])c(NC(c3ccccc3)c3ccccc3)c2)CC1` [MBX 3749, 2-(benzhydrylamino)-4-[4-(dimethylamino)piperidin-1-yl]-1-nitrobenzene], for which, in “in vitro”, the CC50 turned out to be 7.7 µM. In addition, the IC50 in the series on rVSV-EBOV GP stood at 0.7 µM.

`Cc1ccc(C(Nc2cc(N3CCN(C)CC3)ccc2[N+](=O)[O-])c2ccccc2)cc1` (stereo not drawn) [MBX 3687, 2-[(phenyl)(p-tolyl)methylamino]-4-(4-methylpiperazin-1-yl)nitrobenzene] came in with a CC50 in the series “in vitro” of 16 µM. Moreover, the IC50 in the series with rVSV-EBOV GP came to 2.2 µM.

Compound `CN1CCN(c2ccc([N+](=O)[O-])c(NC(c3ccccc3)c3cccnc3)c2)CC1` (stereo not drawn) [MBX 3648, 2-[(pyridin-3-yl)(phenyl)methylamino]-4-(4-methylpiperazin-1-yl)nitrobenzene] returned a CC50 in “in vitro” of 17 µM. Further, the IC50 with rVSV-EBOV GP was more than 25 µM.

In turn, `CN1CCC(N(C)c2ccc([N+](=O)[O-])c(NC(c3ccccc3)c3ccccc3)c2)CC1` [MBX 3742, 2-(benzhydrylamino)-4-[methyl(1-methylpiperidin-4-yl)amino]-1-nitrobenzene] yielded a CC50 in “in vitro” of 3.3 µM. Moreover, the IC50 in the series with rVSV-EBOV GP was determined as 1.5 µM.

Regarding `CN1CCN(c2ccc([N+](=O)[O-])c(NC(=O)c3ccccc3)c2)CC1` [MBX 4328, N-[5-(4-methylpiperazin-1-yl)-2-nitrophenyl]benzamide], the CC50 in the series “in vitro” worked out at 60 µM. Also, in the series with rVSV-EBOV GP, the IC50 was determined as 11.5 µM.

For `O=[N+]([O-])c1ccc(N2CCSCC2)cc1NC(c1ccccc1)c1ccccc1` [MBX 3699, 2-benzhydrylamino-4-thiomorpholino-1-nitrobenzene], the CC50 in the series “in vitro” is more than 100 µM. Further, in the series on rVSV-EBOV GP, the IC50 was more than 25 µM.

The compound `O=[N+]([O-])c1ccc(N2CCC(N3CCCCC3)CC2)cc1NC(c1ccccc1)c1ccccc1` [MBX 3747, 2-(benzhydrylamino)-4-[(1,4′-bipiperidin)-1′-yl]-1-nitrobenzene] returned a CC50 in the series “in vitro” of 7.5 µM. Further, the IC50 in the series on rVSV-EBOV GP was determined as 0.58 µM.

As to `CN1CCN(c2ccc([N+](=O)[O-])c(NC3(c4ccccc4)CCCC3)c2)CC1` [MBX 4296, 5-(4-methylpiperazin-1-yl)-2-nitro-N-(1-phenylcyclopentyl)aniline], in “in vitro”, the CC50 was more than 200 µM. The IC50 in the series on rVSV-EBOV GP was found to be 5.89 µM.

The compound `c1ccc(C(c2ccccc2)n2cnc3ccc(N4CCN5CCCCC5C4)cc32)cc1` (stereo not drawn) [MBX 4211, 2-(1-benzhydryl-1H-benzo[d]imidazol-6-yl)octahydro-1H-pyrido[1,2-a]pyrazine] had a CC50 in “in vitro” of 195 µM. The IC50 with rVSV-EBOV GP is 2 µM.

Take `CN1CCN(c2ccc([N+](=O)[O-])c(NC3(c4ccccc4)CC3)c2)CC1` [MBX 4295, 5-(4-methylpiperazin-1-yl)-2-nitro-N-(1-phenylcyclopropyl)aniline]: the CC50 in “in vitro” is 58 µM. Also, in the series with rVSV-EBOV GP, the IC50 was 16.2 µM.

`CCOC(=O)CC(Nc1cc(N2CCN(C)CC2)ccc1[N+](=O)[O-])c1ccccc1` (stereo not drawn) [MBX 4329, ethyl 3-((5-(4-methylpiperazin-1-yl)-2-nitrophenyl)amino)-3-phenylpropanoate] registered a CC50 in the series “in vitro” of 45 µM. Besides, in the series with rVSV-EBOV GP, the IC50 came out at 10.4 µM.

In turn, `CCOC(=O)CN1CCN(c2ccc([N+](=O)[O-])c(NC(c3ccccc3)c3ccccc3)c2)CC1` [MBX 3947, 2-(benzhydrylamino)-4-[4-(2-ethoxy-2-oxoethyl)piperazin-1-yl]-1-nitrobenzene] displayed a CC50 in the series “in vitro” of more than 100 µM. Moreover, the IC50 with rVSV-EBOV GP was determined as 18 µM.

Take `COc1cccc(C(Nc2cc(N3CCN(C)CC3)ccc2[N+](=O)[O-])c2ccccc2)c1` (stereo not drawn) [MBX 3641, 2-[(3-methoxyphenyl)(phenyl)methylamino]-4-(4-methylpiperazin-1-yl)nitrobenzene]: in the series “in vitro”, the CC50 was 26 µM. Further, in the series on rVSV-EBOV GP, the IC50 is more than 25 µM.

For `O=[N+]([O-])c1ccc(-c2cccnc2)cc1NC(c1ccccc1)c1ccccc1` [MBX 4279, N-benzhydryl-2-nitro-5-(pyridin-3-yl)aniline], the CC50 in the series “in vitro” amounted to 49 µM. The IC50 in the series with rVSV-EBOV GP came to 12.4 µM.

In the series “in vitro”, `CN1CCCN(c2ccc([N+](=O)[O-])c(NC(c3ccccc3)c3ccccc3)c2)CC1` [MBX 3700, 2-benzhydrylamino-4-(4-methyl-1,4-diazepan-1-yl)-1-nitrobenzene] had a CC50 of 7.6 µM. Further, the IC50 in the series with rVSV-EBOV GP is less than 0.1 µM.

Take `CN1CCN(c2ccc([N+](=O)[O-])c(NC(c3ccccc3)c3ccc(Cl)cc3)c2)CC1` (stereo not drawn) [MBX 3644, 2-[(4-chlorophenyl)(phenyl)methylamino]-4-(4-methylpiperazin-1-yl)nitrobenzene]: in “in vitro”, the CC50 worked out at 18 µM. Moreover, in the series with rVSV-EBOV GP, the IC50 was determined as 1.4 µM.

On to `CN1CCN(c2ccc3ncn(C(C)(C)c4ccccc4)c3c2)CC1` [MBX 4213, 6-(4-methylpiperazin-1-yl)-1-(2-phenylpropan-2-yl)-1H-benzo[d]imidazole], for which the CC50 in the series “in vitro” is more than 200 µM. The IC50 in the series on rVSV-EBOV GP worked out at 200 µM.

`CCN(CC)c1ccc([N+](=O)[O-])c(NC(c2ccccc2)c2ccccc2)c1` [MBX 3696, 2-benzhydrylamino-4-(diethylamino)nitrobenzene] returned a CC50 in the series “in vitro” of more than 100 µM. Moreover, in the series on rVSV-EBOV GP, the IC50 was more than 25 µM.
